Columns and labels:
Assay in all cases: post-emergence herbicidal activity, greenhouse
Assay type in all cases: in vivo
[1] = tested on: Yellow Nutsedge; conditions: Table I, 4 WAT
Description: (§1) A good grade of top soil is placed in aluminum pans having holes in the bottom and compacted to a depth of 0.95 to 1.27 cm. from the top of the pan. A predetermined number of seeds of each of several dicotyledonous and monocotyledonous annual plant species and/or vegetative propagules for the perennial plant species are placed on the soil and pressed into the soil surface. The seeds and/or vegetative propagules are covered with soil and leveled. The pans are then placed on a sand bench in the greenhouse and watered from below as needed. After the plants reach the desired age (two to three weeks), each pan except for the control pans is removed individually to a spraying chamber and sprayed by means of an atomizer operating at a positive air pressure of approximately 1.46 kg/cm^2 absolute. The atomizer contains 6 ml. of a solution or suspension of the chemical. In that 6 ml., is an amount of a cyclohexanone emulsifying agent mixture to give a spray solution or suspension which contains about 0.4% by weight of the emulsifier. The spray solution or suspension contains a sufficient amount of the candidate chemical in order to give application rates corresponding to those set forth in the tables. The spray solution is prepared by taking an aliquot of a 1.0% by weight stock solution or suspension of the candidate chemical in an organic solvent such as acetone or tetrahydrofuran or in water. The emulsifying agent employed is a mixture comprising 35 weight percent butylamine dodecylbenzene sulfonate and 65 weight percent of a tall oil ethylene oxide condensate having about 11 moles of ethylene oxide per mole of tall oil. The pans are returned to the greenhouse and watered as before and the injury to the plants as compared to the control is observed at approximately two and four weeks as indicated in the tables under WAT and the results recorded. In some instances, the two-week observations are omitted.
(§2) The post-emergence herbicidal activity index used in Table I is as follows: […]

[2] = tested on: Smartweed
Description: as §1, §2

[3] = tested on: Velvetleaf
Description: as §1, §2

[4] = tested on: Sorghum; conditions: Table II
Description: as §1, §2

[5] = tested on: Johnsongrass; conditions: Table I, 4 WAT
Description: as §1, §2

[6] = tested on: Sugar Beet; conditions: Table II
Description: as §1, §2

[7] = tested on: Soybean; conditions: Table II
Description: as §1, §2

[8] = tested on: Crabgrass; conditions: Table II
Description: as §1, §2

[9] = tested on: Barnyardgrass
Description: as §1, §2

[10] = tested on: Cocklebur
Description: as §1, §2

[11] = tested on: Quackgrass; conditions: Table I, 4 WAT
Description: as §1, §2

[12] = tested on: Rice; conditions: Table II
Description: as §1, §2

[13] = tested on: Downy Brome
Description: as §1, §2

[14] = tested on: Hemp Sesbania; conditions: Table II
Description: as §1, §2

[15] = tested on: Panicum Spp; conditions: Table II
Description: as §1, §2

[16] = tested on: Wild Buckwheat; conditions: Table II
Description: as §1, §2

[17] = tested on: Wheat; conditions: Table II
Description: as §1, §2

[18] = tested on: Lambsquarters
Description: as §1, §2

[19] = tested on: Morningglory
Description: as §1, §2

Compound: N#CCN(CP(=O)(Oc1ccccc1)Oc1ccccc1)SSCCc1ccccc1 [XII, Phosphonic acid, [[(cyanomethyl)[(2-phenylethyl)dithio]amino]methyl]-, diphenyl ester]
- post-emergence herbicidal activity index ([1]; 5.6 kg/h): 2 (50-74% control)
- post-emergence herbicidal activity index ([1]; 11.2 kg/h): 2 (50-74% control)
- post-emergence herbicidal activity index ([2]; Table I, 4 WAT, 5.6 kg/h): 0 (0-24% control)
- post-emergence herbicidal activity index ([2]; Table I, 4 WAT, 11.2 kg/h): 3 (75-99% control)
- post-emergence herbicidal activity index ([2]; Table II, 2 WAT, 0.28 kg/h): 0 (0-24% control)
- post-emergence herbicidal activity index ([2]; Table II, 4 WAT, 1.12 kg/h): 0 (0-24% control)
- post-emergence herbicidal activity index ([2]; Table II, 4 WAT, 5.6 kg/h): 2 (50-74% control)
- post-emergence herbicidal activity index ([3]; Table I, 4 WAT, 5.6 kg/h): 0 (0-24% control)
- post-emergence herbicidal activity index ([3]; Table I, 4 WAT, 11.2 kg/h): 2 (50-74% control)
- post-emergence herbicidal activity index ([3]; Table II, 2 WAT, 0.28 kg/h): 0 (0-24% control)
- post-emergence herbicidal activity index ([3]; Table II, 4 WAT, 1.12 kg/h): 0 (0-24% control)
- post-emergence herbicidal activity index ([3]; Table II, 4 WAT, 5.6 kg/h): 2 (50-74% control)
- post-emergence herbicidal activity index ([4]; 2 WAT, 0.28 kg/h): 0 (0-24% control)
- post-emergence herbicidal activity index ([4]; 4 WAT, 1.12 kg/h): 1 (25-49% control)
- post-emergence herbicidal activity index ([4]; 4 WAT, 5.6 kg/h): 3 (75-99% control)
- post-emergence herbicidal activity index ([5]; 5.6 kg/h): 1 (25-49% control)
- post-emergence herbicidal activity index ([5]; 11.2 kg/h): 4 (100% control)
- post-emergence herbicidal activity index ([6]; 2 WAT, 0.28 kg/h): 0 (0-24% control)
- post-emergence herbicidal activity index ([6]; 4 WAT, 1.12 kg/h): 0 (0-24% control)
- post-emergence herbicidal activity index ([6]; 4 WAT, 5.6 kg/h): 1 (25-49% control)
- post-emergence herbicidal activity index ([7]; 2 WAT, 0.28 kg/h): 0 (0-24% control)
- post-emergence herbicidal activity index ([7]; 4 WAT, 1.12 kg/h): 0 (0-24% control)
- post-emergence herbicidal activity index ([7]; 4 WAT, 5.6 kg/h): 1 (25-49% control)
- post-emergence herbicidal activity index ([8]; 2 WAT, 0.28 kg/h): 0 (0-24% control)
- post-emergence herbicidal activity index ([8]; 4 WAT, 1.12 kg/h): 0 (0-24% control)
- post-emergence herbicidal activity index ([8]; 4 WAT, 5.6 kg/h): 3 (75-99% control)
- post-emergence herbicidal activity index ([9]; Table I, 4 WAT, 5.6 kg/h): 2 (50-74% control)
- post-emergence herbicidal activity index ([9]; Table I, 4 WAT, 11.2 kg/h): 2 (50-74% control)
- post-emergence herbicidal activity index ([9]; Table II, 2 WAT, 0.28 kg/h): 0 (0-24% control)
- post-emergence herbicidal activity index ([9]; Table II, 4 WAT, 1.12 kg/h): 0 (0-24% control)
- post-emergence herbicidal activity index ([9]; Table II, 4 WAT, 5.6 kg/h): 2 (50-74% control)
- post-emergence herbicidal activity index ([10]; Table I, 4 WAT, 5.6 kg/h): 2 (50-74% control)
- post-emergence herbicidal activity index ([10]; Table I, 4 WAT, 11.2 kg/h): 4 (100% control)
- post-emergence herbicidal activity index ([10]; Table II, 2 WAT, 0.28 kg/h): 0 (0-24% control)
- post-emergence herbicidal activity index ([10]; Table II, 4 WAT, 1.12 kg/h): 0 (0-24% control)
- post-emergence herbicidal activity index ([10]; Table II, 4 WAT, 5.6 kg/h): 2 (50-74% control)
- post-emergence herbicidal activity index ([11]; 5.6 kg/h): 0 (0-24% control)
- post-emergence herbicidal activity index ([11]; 11.2 kg/h): 3 (75-99% control)
- post-emergence herbicidal activity index ([12]; 2 WAT, 0.28 kg/h): 0 (0-24% control)
- post-emergence herbicidal activity index ([12]; 4 WAT, 1.12 kg/h): 0 (0-24% control)
- post-emergence herbicidal activity index ([12]; 4 WAT, 5.6 kg/h): 0 (0-24% control)
- post-emergence herbicidal activity index ([13]; Table I, 4 WAT, 5.6 kg/h): 0 (0-24% control)
- post-emergence herbicidal activity index ([13]; Table I, 4 WAT, 11.2 kg/h): 3 (75-99% control)
- post-emergence herbicidal activity index ([13]; Table II, 2 WAT, 0.28 kg/h): 0 (0-24% control)
- post-emergence herbicidal activity index ([13]; Table II, 4 WAT, 1.12 kg/h): 0 (0-24% control)
- post-emergence herbicidal activity index ([13]; Table II, 4 WAT, 5.6 kg/h): 2 (50-74% control)
- post-emergence herbicidal activity index ([14]; 2 WAT, 0.28 kg/h): 0 (0-24% control)
- post-emergence herbicidal activity index ([14]; 4 WAT, 1.12 kg/h): 0 (0-24% control)
- post-emergence herbicidal activity index ([14]; 4 WAT, 5.6 kg/h): 1 (25-49% control)
- post-emergence herbicidal activity index ([15]; 2 WAT, 0.28 kg/h): 0 (0-24% control)
- post-emergence herbicidal activity index ([15]; 4 WAT, 1.12 kg/h): 0 (0-24% control)
- post-emergence herbicidal activity index ([15]; 4 WAT, 5.6 kg/h): 1 (25-49% control)
- post-emergence herbicidal activity index ([16]; 2 WAT, 0.28 kg/h): 0 (0-24% control)
- post-emergence herbicidal activity index ([16]; 4 WAT, 1.12 kg/h): 0 (0-24% control)
- post-emergence herbicidal activity index ([16]; 4 WAT, 5.6 kg/h): 2 (50-74% control)
- post-emergence herbicidal activity index ([17]; 2 WAT, 0.28 kg/h): 0 (0-24% control)
- post-emergence herbicidal activity index ([17]; 4 WAT, 1.12 kg/h): 0 (0-24% control)
- post-emergence herbicidal activity index ([17]; 4 WAT, 5.6 kg/h): 1 (25-49% control)
- post-emergence herbicidal activity index ([18]; Table I, 4 WAT, 5.6 kg/h): 4 (100% control)
- post-emergence herbicidal activity index ([18]; Table I, 4 WAT, 11.2 kg/h): 4 (100% control)
- post-emergence herbicidal activity index ([18]; Table II, 2 WAT, 0.28 kg/h): 0 (0-24% control)
- post-emergence herbicidal activity index ([18]; Table II, 4 WAT, 1.12 kg/h): 0 (0-24% control)
- post-emergence herbicidal activity index ([18]; Table II, 4 WAT, 5.6 kg/h): 3 (75-99% control)
- post-emergence herbicidal activity index ([19]; Table I, 4 WAT, 5.6 kg/h): 1 (25-49% control)
- post-emergence herbicidal activity index ([19]; Table I, 4 WAT, 11.2 kg/h): 1 (25-49% control)
- post-emergence herbicidal activity index ([19]; Table II, 2 WAT, 0.28 kg/h): 0 (0-24% control)
- post-emergence herbicidal activity index ([19]; Table II, 4 WAT, 1.12 kg/h): 0 (0-24% control)
- post-emergence herbicidal activity index ([19]; Table II, 4 WAT, 5.6 kg/h): 1 (25-49% control)
